Here are results for 1 compound from US11534423B2, “Methods and compositions for improving exercise endurance, performance, or tolerance” (Washington University, priority 2019, dated 2022).

In one assay the target is T1, S1P (Mus musculus, UniProt Q9WTZ2).
T1 construct: from tissue; host or cells: mouse liver (in vivo, i.p. dosing; earlier mouse studies reported elsewhere)
T1 sequence (Q9WTZ2 187-1052): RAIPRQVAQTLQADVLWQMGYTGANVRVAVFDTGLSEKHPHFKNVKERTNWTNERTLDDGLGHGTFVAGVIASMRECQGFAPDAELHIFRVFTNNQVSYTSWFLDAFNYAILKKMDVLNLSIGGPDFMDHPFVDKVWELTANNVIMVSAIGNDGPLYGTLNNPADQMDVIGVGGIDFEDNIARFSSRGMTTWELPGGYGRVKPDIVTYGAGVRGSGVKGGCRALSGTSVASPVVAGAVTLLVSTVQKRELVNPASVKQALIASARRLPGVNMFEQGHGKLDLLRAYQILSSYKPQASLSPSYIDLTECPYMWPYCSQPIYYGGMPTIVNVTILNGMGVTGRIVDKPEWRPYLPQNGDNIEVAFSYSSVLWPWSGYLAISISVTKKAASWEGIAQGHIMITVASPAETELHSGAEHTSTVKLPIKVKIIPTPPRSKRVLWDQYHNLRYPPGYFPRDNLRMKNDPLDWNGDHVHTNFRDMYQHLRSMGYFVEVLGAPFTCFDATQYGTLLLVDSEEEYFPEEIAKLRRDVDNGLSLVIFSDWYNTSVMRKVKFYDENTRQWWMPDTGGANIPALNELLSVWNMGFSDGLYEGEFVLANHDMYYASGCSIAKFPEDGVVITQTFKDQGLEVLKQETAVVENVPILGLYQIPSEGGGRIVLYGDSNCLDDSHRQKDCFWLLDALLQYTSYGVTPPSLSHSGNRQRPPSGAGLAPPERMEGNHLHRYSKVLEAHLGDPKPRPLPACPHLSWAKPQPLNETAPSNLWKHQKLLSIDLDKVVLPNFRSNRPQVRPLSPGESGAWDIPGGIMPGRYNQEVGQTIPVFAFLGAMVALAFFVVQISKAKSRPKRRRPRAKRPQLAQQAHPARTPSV
As to conditions: 30 mg/kg i.p. injection every 6 hrs for 24 hr; cited from earlier work.

For a further assay, the system named is Wild-type mice. Kind of assay: acute exercise test to exhaustion after intraperitoneal injection. It is filed as in vivo. As to conditions: PF-429242 or vehicle, N=3, FIG. 14. How it is done: Exercise endurance: Mice will undergo a single bout of a graded exercise test to exhaustion using a 4-lane treadmill on a 0% incline, with an electric grid at the back of each treadmill. Three days before the endurance test, mice will have 3 days of acclimation at 10 m/min at 0% incline for 5 min. The test will involve a 5 min acclimation period on the treadmill (turned off), followed by: 5 m/min for 5 min; 10 m/min for 5 min; 15 m/min for 10 min; 25 m/min for 10 min; and finally, 30 m/min until exhaustion is reached. Exhaustion is defined as the inability of the mouse to resume running within 10 s after direct contact on the electric grid and inability to right itself when placed on its back.
Wild-type mice were treated with PF-429242 or vehicle via intraperitoneal injection, and subjected to an acute exercise test to exhaustion (N=3).

Take `CCN(CC)Cc1ccc(C(=O)N(CCc2ccccc2OC)[C@@H]2CCNC2)cc1` [PF-429242]: on S1P, the “S1P inhibition in mouse liver” value is given as “effectively inhibits S1P”. Moreover, in the assay on Wild-type mice, the exercise tolerance entry was “enhanced exercise tolerance”.
